From US20250122173A1, “MODULATORS OF RHO-ASSOCIATED PROTEIN KINASE” (Redx Pharma Limited, priority 2022, published 2025)

Experiments:
ROCK1 = ROCK1 (Homo sapiens, UniProt Q13464); assay: ROCK1 inhibition assay (ROCK1 binding activity, as determined by the assay described for ROCK2); assay type: biochemical; conditions: read-out: ROCK 1 (IC50 category)
In short: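 Run under the conditions used for ROCK2: 1 h compound–kinase preincubation, then 1 h reaction with 100 μM long S6 peptide and 20 μM ATP in 50 mM HEPES pH 7.5, 1% DMSO. ADP quantified by ADP-Glo luminescence; IC50 from four-parameter logistic fit, reported in potency categories.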

ROCK2 = biological target: T1, ROCK2 (Homo sapiens, UniProt O75116); assay: ROCK2 inhibition assay (ADP-Glo kinase assay, called ROCK2 binding activity); assay type: biochemical; conditions: 20 μM ATP, 1 hour pre-incubation, read-out: ROCK 2 (IC50 category)
T1 construct: N-terminal 6His-tagged ROCK2 catalytic domain 11-552; 6His (N); purchased Dundee University, UK; host or cells: baculovirus expression system
T1 sequence (O75116 11-552): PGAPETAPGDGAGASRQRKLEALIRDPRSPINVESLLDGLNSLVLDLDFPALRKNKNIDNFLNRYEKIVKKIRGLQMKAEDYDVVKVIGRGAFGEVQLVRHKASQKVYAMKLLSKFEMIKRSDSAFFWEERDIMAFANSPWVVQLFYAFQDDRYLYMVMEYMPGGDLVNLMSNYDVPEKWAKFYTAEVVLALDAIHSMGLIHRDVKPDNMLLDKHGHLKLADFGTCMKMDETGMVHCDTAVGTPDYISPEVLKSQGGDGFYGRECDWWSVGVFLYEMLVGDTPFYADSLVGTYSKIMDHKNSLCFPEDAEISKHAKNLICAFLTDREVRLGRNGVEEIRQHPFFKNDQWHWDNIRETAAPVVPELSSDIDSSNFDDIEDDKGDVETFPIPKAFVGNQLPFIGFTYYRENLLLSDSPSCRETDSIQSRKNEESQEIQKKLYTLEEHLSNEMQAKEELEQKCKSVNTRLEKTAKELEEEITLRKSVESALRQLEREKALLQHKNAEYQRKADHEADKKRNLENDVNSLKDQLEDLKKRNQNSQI
In short: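 N-terminal 6His ROCK2 catalytic domain (11-552, baculovirus-expressed; 1.25 nM) was pre-incubated with compound for 1 h (1% DMSO, HEPES pH 7.5). Reaction then ran 1 h with 100 μM long S6 peptide and 20 μM ATP. ADP was quantified by ADP-Glo luminescence, and IC50 was derived from a four-parameter logistic fit and reported in potency bins.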

Sequence of ROCK1 (Q13464 whole entry): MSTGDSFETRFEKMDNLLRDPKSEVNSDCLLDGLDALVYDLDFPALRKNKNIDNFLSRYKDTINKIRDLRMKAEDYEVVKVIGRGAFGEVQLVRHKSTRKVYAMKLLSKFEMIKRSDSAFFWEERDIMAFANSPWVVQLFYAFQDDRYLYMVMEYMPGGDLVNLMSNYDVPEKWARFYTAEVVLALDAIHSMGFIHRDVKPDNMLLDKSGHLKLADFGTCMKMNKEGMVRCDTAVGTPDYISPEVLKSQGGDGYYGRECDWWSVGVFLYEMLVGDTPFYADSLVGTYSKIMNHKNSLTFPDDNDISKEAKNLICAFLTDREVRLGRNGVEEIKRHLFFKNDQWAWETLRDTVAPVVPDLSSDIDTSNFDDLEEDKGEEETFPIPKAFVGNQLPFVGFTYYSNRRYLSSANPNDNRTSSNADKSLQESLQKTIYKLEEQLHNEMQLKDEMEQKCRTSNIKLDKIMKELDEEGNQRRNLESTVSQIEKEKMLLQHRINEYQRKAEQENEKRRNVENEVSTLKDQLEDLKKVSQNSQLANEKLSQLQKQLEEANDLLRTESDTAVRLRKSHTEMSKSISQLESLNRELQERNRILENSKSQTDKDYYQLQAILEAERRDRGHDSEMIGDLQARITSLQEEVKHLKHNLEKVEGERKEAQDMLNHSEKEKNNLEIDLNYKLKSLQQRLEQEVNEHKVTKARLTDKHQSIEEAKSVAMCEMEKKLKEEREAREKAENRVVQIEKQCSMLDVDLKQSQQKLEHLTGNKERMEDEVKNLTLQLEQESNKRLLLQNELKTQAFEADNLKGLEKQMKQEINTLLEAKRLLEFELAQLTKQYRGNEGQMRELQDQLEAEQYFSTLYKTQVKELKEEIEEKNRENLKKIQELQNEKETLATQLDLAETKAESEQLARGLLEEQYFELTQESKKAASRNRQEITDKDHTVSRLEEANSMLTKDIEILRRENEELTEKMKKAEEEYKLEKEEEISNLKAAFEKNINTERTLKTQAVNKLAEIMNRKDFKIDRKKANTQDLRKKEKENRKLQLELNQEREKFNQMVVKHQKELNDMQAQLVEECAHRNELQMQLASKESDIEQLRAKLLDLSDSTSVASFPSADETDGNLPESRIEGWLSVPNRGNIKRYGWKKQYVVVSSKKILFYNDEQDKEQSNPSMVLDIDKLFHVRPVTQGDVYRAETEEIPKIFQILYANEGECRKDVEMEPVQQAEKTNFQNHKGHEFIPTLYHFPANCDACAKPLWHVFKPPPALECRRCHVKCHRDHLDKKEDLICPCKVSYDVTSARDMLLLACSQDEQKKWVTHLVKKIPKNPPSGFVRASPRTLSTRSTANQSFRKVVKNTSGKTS

| IC50 (ROCK1) [µM] | IC50 (ROCK2) [µM] | Compound |
| --- | --- | --- |
| 3 to 10 | < 0.3 | Cn1nc(-c2ccc(-c3ccnc(C(F)(F)F)c3)cc2)nc1Nc1ccc2c(c1)CNC2=O [Example 5] |
| > 10 | 0.3 to 3 | CCn1nc(-c2ccc(C3CCCN(CC(F)(F)F)C3)cc2)nc1Nc1cc2c(cc1F)C(=O)NC2C (centres unmarked) [Example 143] |
| 3 to 10 | < 0.3 | CCn1nc(-c2ccc(-n3cnc(C4CC4)c3)cc2C)nc1Nc1cc2c(cc1C)C(=O)N[C@@H]2C [Example 158] |
| 3 to 10 | < 0.3 | CCn1nc(-c2ccc(-c3ccncc3)cc2)nc1Nc1ccc2c(c1)CNC2=O [Example 30] |
| > 10 | < 0.3 | CCn1nc(-c2ccc(-c3ccc(C4CC4)nc3)c(C)c2)nc1Nc1cc2c(cc1F)C(=O)NC2C (centres unmarked) [Example 80] |
| > 10 | 0.3 to 3 | CCn1nc(-c2ccc(C3CCN(CC(F)(F)F)CC3)cc2)nc1Nc1cc2c(cc1C)C(=O)NC2C (centres unmarked) [Example 123] |
| 3 to 10 | < 0.3 | CCn1nc(-c2ccc(-c3ccc(C4CC4)nc3)cc2)nc1Nc1ccc2c(c1)C(C)NC2=O (centres unmarked) [Example 47] |
| > 10 | < 0.3 | CCn1nc(-c2ccc(-c3ccc(C4CC4)nc3)c(F)c2)nc1Nc1cc2c(cc1C)C(=O)NC2C (centres unmarked) [Example 62] |
| 3 to 10 | < 0.3 | CCn1nc(-c2ccc(-c3cn(C)c(C4CC4)n3)cc2C)nc1Nc1cc2c(cc1C)C(=O)NC2C (centres unmarked) [Example 122] |
| < 0.3 | < 0.3 | CCn1nc(-c2ccc(-c3ccc(C)nc3)c(OC)c2)nc1Nc1ccc2c(c1)CNC2=O [Example 36] |
| > 10 | < 0.3 | CCn1nc(-c2cnc(-c3ccc(C4CC4)nc3)c(C)c2)nc1Nc1cc2c(cc1C)C(=O)NC2C (centres unmarked) [Example 121] |
| > 10 | < 0.3 | CCn1nc(-c2ccc(-c3ccc(C4CC4)nc3)c(F)c2)nc1Nc1ccc2c(c1)CNC2=O [Example 37] |
| 3 to 10 | < 0.3 | CCn1nc(-c2ccc(-n3cnc(C4CC4)c3)cc2)nc1Nc1ccc2c(c1)C(C)NC2=O (centres unmarked) [Example 21] |
| > 10 | < 0.3 | CCn1nc(-c2ccc(-c3ccc(C4CC4)nc3)c(F)c2)nc1Nc1cc2c(cc1F)C(=O)NC2C (centres unmarked) [Example 85] |
| > 10 | > 10 | CCn1nc(-c2ccc(C3CCCN(C)C3)cc2)nc1Nc1cc2c(cc1C)C(=O)NC2C (centres unmarked) [Example 151] |
| 3 to 10 | < 0.3 | CCn1nc(-c2ccc(-c3ccc(C)nc3)cc2)nc1Nc1ccc2c(c1)C(C)NC2=O (centres unmarked) [Example 61] |
| 3 to 10 | < 0.3 | CCn1nc(-c2ccc(-c3ccc(C4CC4)nc3)nc2)nc1Nc1cc2c(cc1C)C(=O)NC2C (centres unmarked) [Example 97] |
| > 10 | > 10 | CCn1nc(-c2ccc(C3CCN(C)CC3)cc2)nc1Nc1cc2c(cc1C)C(=O)NC2C (centres unmarked) [Example 142] |
| > 10 | 0.3 to 3 | CCn1nc(-c2ccc(-c3ccc(C)nc3)c(C(C)(C)O)c2)nc1Nc1cc2c(cc1C)C(=O)NC2C (centres unmarked) [Example 119] |
